This note sets out measurements from patent US20180042223A1, “COMPOSITION COMPRISING A HYDROGEL AND PESTICIDES” (priority 2014, published 2018).

The test has as its system spider mite (Tetranychus uricae). The test is described as follows: Effectiveness of pesticide with NovioHelix hydrogel adjuvant: dead percentage of spider mites on paprika plants. The class given is in vivo. Conditions: day 5 after treatment; infected paprika plants; applied till run off; Noviohelix 3 mg/mL where used. On the procedure:
Paprika plants infected with spider mite (Tetranychus uricae) were used as experiment samples. All paprika (±20cm) were artificially infected with spiders 5 days before the experiments. The insecticide Spiromesifen (Spiromesifen, 240 g/l, Oberon) was used to against spiders. Noviohelix (3 mg/mL) was used as an adjuvant. All samples were applied with pesticide until ‘till run off’ (the first droplet of a composition fall off the leave). The effectiveness of Spiromesifen either with or without NovioHelix was determined based on the dead percentage of spiders after treatment. The spiders both in mature and immature phases were counted before and at day 5 after experiment.

As for `Cc1cc(C)c(C2=C(OC(=O)CC(C)(C)C)C3(CCCC3)OC2=O)c(C)c1` [Spiromesifen], the “% dead (dead percentage of spider)” value came to 84.8%.
